The numbers were not newly measured in US20080161413A1, “Agent for increasing adiponectin in blood” (YAMAHA HATSUDOKI KABUSHIKI KAISHA, priority 2006, published 2008), which cites them from elsewhere.

The subject of the data set is adiponectin. The conditions noted are these: obese/diabetic mice.

Structures are written as SMILES.

With `COc1cc(C(C)=O)ccc1O` [apocynin], the production of adiponectin result is “increases”.
